What was measured:
MCF7 [1] = assay: Cytotoxicity against human MCF7 cells assessed as cell viability incubated for 72 hrs by MTT assay; assay type: functional, cell-based; conditions: MCF7, 72 h
MDA-MB-231 [2] = assay: Cytotoxicity against human MDA-MB-231 cells assessed as cell viability incubated for 72 hrs by MTT assay; assay type: functional, cell-based; conditions: MDA-MB-231, 72 h
MCF-10A = assay: Cytotoxicity against human MCF-10A cells assessed as cell viability incubated for 72 hrs by MTT assay; assay type: functional, cell-based
MDA-MB-231 [3] = assay: Cytotoxicity against human MDA-MB-231 cells assessed as cell viability at 100 uM incubated for 72 hrs by MTT assay relative to control; assay type: functional; conditions: read-out: Activity
MCF7 [4] = assay: Cytotoxicity against human MCF7 cells assessed as cell viability at 100 uM incubated for 72 hrs by MTT assay relative to control; assay type: functional; conditions: read-out: Activity
[5] = Stability of compound in D2O/DMSO-d6 (20:80) measured upto 1 day by 1H NMR spectroscopic analysis; assay type: physicochemical; conditions: 24 h
[6] = Selectivity index, ratio of IC50 for human MCF-10A cells to ratio of IC50 for human MDA-MB-231 cells; assay type: toxicity; conditions: MCF-10A cells versus MDA-MB-231 cells, read-out: Selectivity Index
[7] = Selectivity index, ratio of IC50 for human MCF-10A cells to ratio of IC50 for human MCF-7 cells; assay type: toxicity; conditions: MCF-10A cells versus MCF-7 cells, read-out: Selectivity Index
MCF7 [8] = assay: Induction of apoptosis in human MCF7 cells incubated for 72 hrs by Annexin V-FITC and PI staining based flow cytometry analysis; assay type: functional
MDA-MB-231 [9] = assay: Induction of apoptosis in human MDA-MB-231 cells incubated for 72 hrs by Annexin V-FITC and PI staining based flow cytometry analysis; assay type: functional
[10] = Downregulation of Bcl-2 mRNA expression level in human MCF7 cells assessed as fold change by qRT-PCR analysis; assay type: functional
[11] = Downregulation of Bcl-2 mRNA expression level in human MDA-MB-231 cells assessed as fold change by qRT-PCR analysis; assay type: functional
[12] = Upregulation of Bax mRNA expression level in human MCF7 cells assessed as fold change by qRT-PCR analysis; assay type: functional
[13] = Upregulation of Bax mRNA expression level in human MDA-MB-231 cells assessed as fold change by qRT-PCR analysis; assay type: functional
[14] = Stability of compound in D2O/DMSO-d6 (20:80) measured after 2 days by 1H NMR spectroscopic analysis; assay type: physicochemical; conditions: 48 h; time 2 day
[15] = Stability of compound in 100 % DMSO-d6 by 1H NMR spectroscopic analysis; assay type: physicochemical; conditions: 168 h, TDE = time-dependent effect, time < 7 day
DNA = assay: Binding affinity to DNA (unknown origin) assessed as intrinsic binding constant at 0 to 15 uM by ultraviolet-visible spectroscopic analysis; assay type: nucleic-acid assay; conditions: dose 0-15 µM
MCF7 [16] = assay: Downregulation of Bcl-2 protein level in human MCF7 cells measured after 24 to 72 hrs by Western blot analysis; assay type: functional, cell-based; conditions: time 24-72 hrs
MDA-MB-231 [17] = assay: Downregulation of Bcl-2 protein level in human MDA-MB-231 cells measured after 24 to 72 hrs by Western blot analysis; assay type: functional, cell-based; conditions: time 24-72 hrs
MCF7 [18] = assay: Upregulation of Bax protein level in human MCF7 cells measured after 24 to 72 hrs by Western blot analysis; assay type: functional, cell-based; conditions: time 24-72 hrs
MDA-MB-231 [19] = assay: Upregulation of Bax protein level in human MDA-MB-231 cells measured after 24 to 72 hrs by Western blot analysis; assay type: functional, cell-based; conditions: time 24-72 hrs
MCF7 [20] = assay: Downregulation of Bcl-2 protein level in human MCF7 cells by Western blot analysis; assay type: functional, cell-based; conditions: time 24-72 hrs, TDE = time-dependent effect
MDA-MB-231 [21] = assay: Downregulation of Bcl-2 protein level in human MDA-MB-231 cells by Western blot analysis; assay type: functional, cell-based; conditions: time 24-72 hrs, TDE = time-dependent effect
MCF7 [22] = assay: Upregulation of Bax protein level in human MCF7 cells by Western blot analysis; assay type: functional, cell-based; conditions: time 24-72 hrs, TDE = time-dependent effect
MDA-MB-231 [23] = assay: Upregulation of Bax protein level in human MDA-MB-231 cells by Western blot analysis; assay type: functional, cell-based; conditions: time 24-72 hrs, TDE = time-dependent effect
HepG2 = assay: Antitumor activity against human HepG2 cells incubated for 72 hrs by MTT assay; assay type: functional, cell-based; conditions: HepG2, 72 h

SMILES	IC50 (MCF7 [1]) [µM]	IC50 (MDA-MB-231 [2]) [µM]	IC50 (MCF-10A) [µM]	viability at 100 µM (MDA-MB-231 [3]) [%]	viability at 100 µM (MCF7 [4]) [%]	further results
Cc1c(C)c(C)c(C[n+]2ccn(-c3cc4cccnc4c4ncccc34)c2)c(C)c1C	49.8	37.2	32.4	–	–	–
CCCCCCCC[n+]1ccn(-c2cc3cccnc3c3ncccc23)c1	49.7	17.8	35.1	10.1	21.1	–
CCCC[n+]1ccn(-c2cc3cccnc3c3ncccc23)c1	43.4	52.6	48.4	25.2	4.8	–
c1cnc2c(c1)cc(-n1ccnc1)c1cccnc12	128	60.7	237	39.7	61.3	–
COc1cccc2c1C(=O)c1c(O)c3c(c(O)c1C2=O)C[C@@](O)(C(=O)CO)C[C@@H]3O[C@H]1C[C@H](N)[C@H](O)[C@H](C)O1 [DOXORUBICIN]	–	4.8	–	–	–	–
CCCCCCCCCCCC[n+]1ccn(-c2cc3cccnc3c3ncccc23)c1.[Br-]	15.4	12.8	64.2	–	–	Stability [5]: Stable; selectivity ratio [6]: 5; selectivity ratio [7]: 4.1; Activity (MCF7 [8]): 89%; Activity (MDA-MB-231 [9]): 95%; fold change (FC) [10]: 3.9; fold change (FC) [11]: 4.2; fold change (FC) [12]: 3.4; fold change (FC) [13]: 3.6; Stability [14]: Unstable; Stability [15]: Tde; Kb (DNA): 12600 M⁻¹; Activity (MCF7 [16]): Dose-Dependent Effect; Activity (MDA-MB-231 [17]): Dose-Dependent Effect; Activity (MCF7 [18]): Dose-Dependent Effect; Activity (MDA-MB-231 [19]): Dose-Dependent Effect; Activity (MCF7 [20]): Tde; Activity (MDA-MB-231 [21]): Tde; Activity (MCF7 [22]): Tde; Activity (MDA-MB-231 [23]): Tde
c1ccc(C[n+]2ccn(-c3cc4cccnc4c4ncccc34)c2)cc1	52	29.4	46.7	–	–	–
c1ccc(-c2nc3c4cccnc4c4ncccc4c3[nH]2)cc1	–	–	–	–	–	IC50 (HepG2): 0.68 µM
Cc1cc(C)c(C[n+]2ccn(-c3cc4cccnc4c4ncccc34)c2)c(C)c1	64.2	32.7	35.9	–	–	–

Source: ChEMBL document CHEMBL5614403, “Efficient synthesis of novel 1,10 phenanthroline-substituted imidazolium salts: Exploring their anticancer applications” (Eur J Med Chem, 2024)
